pEC50: −log10 of the molar value.
Biological target: T1, cereblon (CRBN) (Homo sapiens, UniProt Q96SW2)
T1 construct: GST-tagged human cereblon/DDB1, co-expressed by baculovirus; with DDB1
Assay: competitive TR-FRET binding assay versus XL-665-labelled thalidomide

CN(C)c1ccc(-c2nc3ccc(OCCOCCOCCNc4cccc5c4C(=O)N(C4CCC(=O)NC4=O)C5=O)cc3s2)cc1 (stereo not shown) [compound 2, 4-((2-(2-(2-((2-(4-(Dimethylamino)phenyl)benzo[d]thiazol-6-yl)oxy)ethoxy)ethoxy)ethyl)amino)-2-(2,6-dioxopiperidin-3-yl)isoindoline-1,3-dione]
pEC50: 6.22

From publication PMC10131537, “Degradation of neurodegenerative disease-associated TDP-43 aggregates and oligomers via a proteolysis-targeting chimera” (Journal of Biomedical Science, 2023)
